The values below come from EP2668952A2, “Aqueous formulations of bisphosphonates, vitamin D and benzyl alcohol suitable for subcutaneous or intramuscular use” (Romano, Paolo, priority 2012, dated 2013).

Series [1] can be described thus: Particulate matter in water solutions of zoledronic acid and cholecalciferol with organic solvents. The class given is physicochemical. On the set-up: key: *: opalescent; **: turbid; ***: precipitate. The following applies: zoledronic acid 5.0 mg/3ml, cholecalciferol 0.35 mg/3ml. As to the method: (§1) In order to assess the degree of water solubilization of bisphosphonates and vitamin D by addition of variable amounts of benzyl alcohol and other water mixable organic solvents, 2 mother solutions at concentration of 100 mg disodium clodronate or 5 mg zoledronic acid in 2 ml water for injection, examples of respectively high and low dose bisphosphonates, were prepared and buffered with sodium bicarbonate to pH 6.5.
(§2) Two-ml samples of both solutions with the two bisphosphonates mentioned above were then diluted with water to approx. 3 ml (3 samples: more precisely 2997 µl, 2991µl, and 2970 µl), to 2.7 ml (1 sample) and to 2.4 ml (1 sample).A mother solution containing cholecalciferol in benzyl alcohol or other water mixable organic solvents in a ratio of 0.35 mg : 3.0 mg respectively (11.67% w/w) was also prepared and 2 series of 5 samples of 3.35 mg of it were taken and kept as such (1 sample) or diluted with 6.0 mg, 27.0 mg, 297.0 and 597.0 mg respectively of the same solvent (4 samples).The 5 cholecalciferol solution samples were then added, under slow stirring, to the 5 solution samples of each bisphosphonate in the order, so as to give mixtures with solvent concentration of 0.1, 0.3, 1.0, 10.0 and 20.0% (w/v), left to stand for 10 minutes and then examined according to the microscopic particle count test or visually (an instrumental particle counter was unnecessary).
Table Vb: particulate matter in water solutions of zoledronic acid 5.0 mg/3ml and cholecalciferol 0.35 mg / 3ml, containing different % concentrations (w/v) of organic solvents.

A short description of series [2]: Particulate matter in water solutions of disodium clodronate and cholecalciferol with organic solvents. Set-up: key: *: opalescent; **: turbid; ***: precipitate. The class given is physicochemical. The settings on record: disodium clodronate 100 mg/3ml, cholecalciferol 0.35mg/3ml. As to the method:
as §1, §2
Table Va: particulate matter in water solutions of disodium clodronate 100 mg/3ml and cholecalciferol 0.35mg / 3ml, containing different % concentrations (w/v) of organic solvents.

Where [3] appears, read: 10.0 % (w/v) solvent, count or visual symbol.
Setting [4] is: 20.0 % (w/v) solvent, visual symbol.
Where [5] appears, read: 10 % (w/v) solvent, count or visual symbol.
The mark [6] stands for this setting: 20 % (w/v) solvent, visual symbol.

For `OCc1ccccc1` [Benzyl alcohol], the “Particulate matter ≥ 10µm per ml” value is on record as 10 per ml in series [1] (0.1 % (w/v) solvent); 0 per ml in series [1] (0.3 % (w/v) solvent); 0 per ml in series [1] (1.0 % (w/v) solvent); 0 per ml in series [1] (setting [3]); “*” in series [1] (setting [4]); 8 per ml in series [2] (0.1 % (w/v) solvent). Also, the “Particulate matter ≥ 10µm per ml” value is 0 per ml in series [2] (0.3 % (w/v) solvent), 0 per ml in series [2] (1.0 % (w/v) solvent), 0 per ml in series [2] (setting [5]) and “*” in series [2] (setting [6]).

Regarding `CCO` [Ethanol], the “Particulate matter ≥ 10µm per ml” value is 68 per ml in series [1] (0.1 % (w/v) solvent); 22 per ml in series [1] (0.3 % (w/v) solvent); 16 per ml in series [1] (1.0 % (w/v) solvent); “*” in series [1] (setting [3]); “**” in series [1] (setting [4]); 75 per ml in series [2] (0.1 % (w/v) solvent). For the same compound, the “Particulate matter ≥ 10µm per ml” value in series [2] (0.3 % (w/v) solvent) is given as 23 per ml; in series [2] (1.0 % (w/v) solvent), 48 per ml; in series [2] (setting [5]), “**”; in series [2] (setting [6]), “***”.

Take “Sorbitane monoleate [Sorbitane monoleate (SPAN® 80)]”: the “Particulate matter ≥ 10µm per ml” value in series [2] (0.1 % (w/v) solvent) is listed as 83 per ml; in series [2] (0.3 % (w/v) solvent), 74 per ml; in series [2] (1.0 % (w/v) solvent), 56 per ml; in series [2] (setting [5]) it was “**”; in series [2] (setting [6]) it was “***”.
